Source: US9717769B2, “Method for protecting kidney function” (FUGENBIOPHARMA CO., LTD., priority 2015, dated 2017)

System: MDCK cell line
Assay: MTT analysis of kidney-protection effect against cisplatin-induced renal toxicity
Format: cell-based, canine
Conditions: treated with cisplatin only (5 μM), MTT 24 hours after cisplatin; relative to negative control (neither cisplatin nor EPS) set at 100%
Procedure: MTT analysis was conducted to confirm the kidney-protection effect of the EPS prepared in Preparation Example 4 against renal toxicity caused by an anti-cancer agent.
First, MDCK cell line (Korean Cell Line Bank, Korea) was cultured in DMEM medium supplemented with 10% fetal bovine serum, 100 μg/mL streptomycin and 100 U/mL penicillin at 37° C. and 5% CO2. 100 μL each of the cultured cells was dispensed to 96-well plate at 2×10^4 cells/mL, and cultured for 24 hours. The EPS was added thereto to a concentration of 25, 50 or 250 μg/mL, and 2 hours thereafter, 5 μM of cisplatin was added thereto.
24 hours after cisplatin was added, 10 μL of MTT (1 mg/mL) dissolved in PBS was added to each well, subjected to reaction for 4 hours. After 4 hours, the formation of formazan was confirmed, and the supernatant was completely removed so that formazan may not be dispersed. Then, the resultant was added to dissolve, in 100 μL of DMSO and dissolved, followed by the measurement of the absorbance at 570 nm using ELISA reader.
The results are shown in FIG. 1 as relative values when the value of the negative control group treated with neither cisplatin nor EPS was set at 100%.

N.N.[Cl][Pt][Cl] [cisplatin, cis-diammine-dichloroplatinum [II]]
survival rate of MDCK cell line: about 60%
